The nature of assay [1]: Dissociation constant for binding of camptothecin to the synthetic peptide NSSQSARR by surface plasmon resonance (SPR) method after compound dissolved in 10 % DMSO at 25 degree C. A general note: In SPR one partner is held on a chip, and binding of the other changes the refractive index at the surface.
Assay [2] can be described thus: Dissociation constant for binding of camptothecin to the synthetic peptide NSSQSARR by using quartz-crystal microbalance (QCM) method after compound dissolved in 10 % DMSO at 25 degree C.

By Kd is commonly meant the free concentration of one partner at which half of the binding sites on the other are occupied at equilibrium, for simple one-to-one binding. The low end stands for higher affinity, the high end for lower affinity. With `CC[C@@]1(O)C(=O)OCc2c1cc1n(c2=O)Cc2cc3ccccc3nc2-1` [CAMPTOTHECIN], the Kd in assay [1] was found to be 112 nM; in assay [2] it was 94 nM.

The values are drawn from ChEMBL document CHEMBL1143477, “Camptothecin binds to a synthetic peptide identified by a T7 phage display screen” (Bioorg Med Chem Lett, 2005).
